Laboratory results: US20230085307A1, “PYRIDAZINONE COMPOUND AND HERBICIDE” (NISSAN CHEMICAL CORPORATION, priority 2019, published 2023)

Tests used:
wild oat [1] = assay: Test Example 5: herbicidal effect by foliage application, plastic box (Table 20, symbol I); assay type: in vivo, wild oat (Avena fatua); conditions: foliage application
In short: (§1)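 Post-emergence foliar test in sterilized diluvial soil. Compound applied as water-diluted emulsion at a predetermined rate to 14-day-old plants; evaluation at three weeks.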

green foxtail [2] = assay: Test Example 5: herbicidal effect by foliage application, plastic box (Table 20, symbol G); assay type: in vivo, green foxtail (Setaria viridis); conditions: foliage application
In short: as §1

redroot pigweed [3] = assay: Test Example 4: herbicidal effect by soil treatment (Table 19, symbol N); assay type: in vivo, redroot pigweed (Amaranthus retroflexus); conditions: amount of applied herbicide 320 g/ha
In short: (§2)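 Scoring uses the grading scale of an earlier test, three weeks post-application. Treatment consists of spraying a diluted emulsion formulation across the surface of sterilized diluvial soil in which seeds are buried near 1.5 cm deep; boxes are kept in a greenhouse between 25° C. and 30° C.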

southern crabgrass [4] = assay: Test Example 5: herbicidal effect by foliage application, plastic box (Table 20, symbol F); assay type: in vivo, southern crabgrass (Digitaria ciliaris); conditions: foliage application
In short: as §1

southern crabgrass [5] = assay: Test Example 4: herbicidal effect by soil treatment (Table 19, symbol F); assay type: in vivo, southern crabgrass (Digitaria ciliaris); conditions: amount of applied herbicide 320 g/ha
In short: as §2

green foxtail [6] = assay: Test Example 4: herbicidal effect by soil treatment (Table 19, symbol G); assay type: in vivo, green foxtail (Setaria viridis); conditions: amount of applied herbicide 320 g/ha
In short: as §2

rice flat sedge = assay: Test Example 3: herbicidal effect by foliage application, Wagner pot (Table 18, symbol E); assay type: in vivo, rice flat sedge (Cyperus iria); conditions: amount of applied herbicide 320 g/ha
In short: (§3)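 Plants were sown in alluvial soil held under 0.1–0.5 cm standing water and grown 14 days in a greenhouse at 25–30 °C. An emulsifiable formulation, water-diluted to the set dose, was then sprayed onto the foliage, and effects were scored three weeks later using previously defined criteria.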

windgrass [7] = assay: Test Example 4: herbicidal effect by soil treatment (Table 19, symbol L); assay type: in vivo, windgrass (Apera spica-venti); conditions: amount of applied herbicide 320 g/ha
In short: as §2

Italian ryegrass [8] = assay: Test Example 5: herbicidal effect by foliage application, plastic box (Table 20, symbol K); assay type: in vivo, Italian ryegrass (Lolium multiflorum); conditions: foliage application
In short: as §1

Chinese sprangletop = assay: Test Example 3: herbicidal effect by foliage application, Wagner pot (Table 18, symbol D); assay type: in vivo, chinese sprangletop (Leptochloa chinensis); conditions: amount of applied herbicide 320 g/ha
In short: as §3

persian speedwell [9] = assay: Test Example 5: herbicidal effect by foliage application, plastic box (Table 20, symbol R); assay type: in vivo, Persian speedwell (Veronica persica); conditions: foliage application
In short: as §1

lambsquarters [10] = assay: Test Example 5: herbicidal effect by foliage application, plastic box (Table 20, symbol O); assay type: in vivo, lambsquarters (Chenopodium album); conditions: foliage application
In short: as §1

Italian ryegrass [11] = assay: Test Example 4: herbicidal effect by soil treatment (Table 19, symbol K); assay type: in vivo, Italian ryegrass (Lolium multiflorum); conditions: amount of applied herbicide 320 g/ha
In short: as §2

chickweed [12] = assay: Test Example 5: herbicidal effect by foliage application, plastic box (Table 20, symbol P); assay type: in vivo, common chickweed (Stellaria media); conditions: foliage application
In short: as §1

barnyard grass [13] = assay: Test Example 5: herbicidal effect by foliage application, plastic box (Table 20, symbol H); assay type: in vivo, barnyard grass (Echinochloa crus-galli); conditions: foliage application
In short: as §1

Japanese bulrush = assay: Test Example 1: herbicidal activity, application before weed generation under submerged conditions (Table 16, symbol B); assay type: in vivo, Japanese bulrush (Schoenoplectus juncoides); conditions: amount of applied herbicide 320 g/ha
In short: (§4)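 Alluvial soil was flooded to 4 cm depth, weed seeds were sown mixed and 2.5-leaf rice seedlings were transplanted. On sowing day, the compound's emulsion, diluted in water to a set dose, was applied to the water surface. Plants grew at 25–30 °C and were scored 0–5 after three weeks.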

lambsquarters [14] = assay: Test Example 4: herbicidal effect by soil treatment (Table 19, symbol O); assay type: in vivo, lambsquarters (Chenopodium album); conditions: amount of applied herbicide 320 g/ha
In short: as §2

late watergrass = assay: Test Example 1: herbicidal activity, application before weed generation under submerged conditions (Table 16, symbol A); assay type: in vivo, late watergrass (Echinochloa oryzicola); conditions: amount of applied herbicide 320 g/ha
In short: as §4

velvetleaf [15] = assay: Test Example 5: herbicidal effect by foliage application, plastic box (Table 20, symbol M); assay type: in vivo, velvetleaf (Abutilon theophrasti); conditions: foliage application
In short: as §1

chickweed [16] = assay: Test Example 4: herbicidal effect by soil treatment (Table 19, symbol P); assay type: in vivo, common chickweed (Stellaria media); conditions: amount of applied herbicide 320 g/ha
In short: as §2

redroot pigweed [17] = assay: Test Example 5: herbicidal effect by foliage application, plastic box (Table 20, symbol N); assay type: in vivo, redroot pigweed (Amaranthus retroflexus); conditions: foliage application
In short: as §1

wild oat [18] = assay: Test Example 4: herbicidal effect by soil treatment (Table 19, symbol I); assay type: in vivo, wild oat (Avena fatua); conditions: amount of applied herbicide 320 g/ha
In short: as §2

barnyard grass [19] = assay: Test Example 3: herbicidal effect by foliage application, Wagner pot (Table 18, symbol H); assay type: in vivo, barnyard grass (Echinochloa crus-galli); conditions: amount of applied herbicide 320 g/ha
In short: as §3

blackgrass = assay: Test Example 5: herbicidal effect by foliage application, plastic box (Table 20, symbol J); assay type: in vivo, blackgrass (Alopecurus myosuroides); conditions: foliage application
In short: as §1

persian speedwell [20] = assay: Test Example 4: herbicidal effect by soil treatment (Table 19, symbol R); assay type: in vivo, Persian speedwell (Veronica persica); conditions: amount of applied herbicide 320 g/ha
In short: as §2

windgrass [21] = assay: Test Example 5: herbicidal effect by foliage application, plastic box (Table 20, symbol L); assay type: in vivo, windgrass (Apera spica-venti); conditions: foliage application
In short: as §1

barnyard grass [22] = assay: Test Example 4: herbicidal effect by soil treatment (Table 19, symbol H); assay type: in vivo, barnyard grass (Echinochloa crus-galli); conditions: amount of applied herbicide 320 g/ha
In short: as §2

oval-leafed pondweed = assay: Test Example 1: herbicidal activity, application before weed generation under submerged conditions (Table 16, symbol C); assay type: in vivo, oval-leafed pondweed (Monochoria vaginalis); conditions: amount of applied herbicide 320 g/ha
In short: as §4

velvetleaf [23] = assay: Test Example 4: herbicidal effect by soil treatment (Table 19, symbol M); assay type: in vivo, velvetleaf (Abutilon theophrasti); conditions: amount of applied herbicide 320 g/ha
In short: as §2

[24] = AAH 320 g/ha, evaluated three weeks after application
[25] = 320 g/ha, three weeks after application

| SMILES | herbicidal effect, N: redroot pigweed (redroot pigweed [3]) | herbicidal effect, F: southern crabgrass (southern crabgrass [5]) | herbicidal effect, G: green foxtail (green foxtail [6]) | herbicidal effect on E: rice flat sedge (rice flat sedge) | herbicidal effect, L: windgrass (windgrass [7]) | herbicidal effect on D: Chinese sprangletop (Chinese sprangletop) | herbicidal effect, K: Italian ryegrass (Italian ryegrass [11]) | Herbicidal effect, B: Japanese bulrush (Japanese bulrush) | herbicidal effect, O: lambsquarters (lambsquarters [14]) | Herbicidal effect, A: late watergrass (late watergrass) | herbicidal effect, P: chickweed (chickweed [16]) | herbicidal effect, I: wild oat (wild oat [18]) | herbicidal effect on H: barnyard grass (barnyard grass [19]) | herbicidal effect, R: persian speedwell (persian speedwell [20]) | herbicidal effect, H: barnyard grass (barnyard grass [22]) | Herbicidal effect, C: oval-leafed pondweed (oval-leafed pondweed) | herbicidal effect, M: velvetleaf (velvetleaf [23]) | other results |
| --- | --- | --- | --- | --- | --- | --- | --- | --- | --- | --- | --- | --- | --- | --- | --- | --- | --- | --- |
| CCCC(=O)Oc1c(C)nn(C)c(=O)c1-c1c(-c2ccc3c(c2)OC(F)(F)O3)sc2ccc(F)cc12 [2-393] | 0 (Herbicidal rate of 5% or less (almost no effect)) | 0 (Herbicidal rate of 5% or less (almost no effect)) | 0 (Herbicidal rate of 5% or less (almost no effect)) | 3 (Herbicidal rate of 40% or more and less than 70%) | 5 (Herbicidal rate of 90% or more (almost completely withered)) | 1 (Herbicidal rate of 5% or more and less than 20%) | 4 (Herbicidal rate of 70% or more and less than 90%) | 0 (Herbicidal rate of 5% or less (almost no effect)) | 0 (Herbicidal rate of 5% or less (almost no effect)) | 3 (Herbicidal rate of 40% or more and less than 70%) | 4 (Herbicidal rate of 70% or more and less than 90%) | 0 (Herbicidal rate of 5% or less (almost no effect)) | 5 (Herbicidal rate of 90% or more (almost completely withered)) | 4 (Herbicidal rate of 70% or more and less than 90%) | 0 (Herbicidal rate of 5% or less (almost no effect)) | 0 (Herbicidal rate of 5% or less (almost no effect)) | 0 (Herbicidal rate of 5% or less (almost no effect)) | I: wild oat, herbicidal effect (criteria 0-5) (wild oat [1]; [24]): 4 (Herbicidal rate of 70% or more and less than 90%); G: green foxtail, herbicidal effect (criteria 0-5) (green foxtail [2]; [24]): 4 (Herbicidal rate of 70% or more and less than 90%); F: southern crabgrass, herbicidal effect (criteria 0-5) (southern crabgrass [4]; [24]): 1 (Herbicidal rate of 5% or more and less than 20%); K: Italian ryegrass, herbicidal effect (criteria 0-5) (Italian ryegrass [8]; [24]): 4 (Herbicidal rate of 70% or more and less than 90%); R: persian speedwell, herbicidal effect (criteria 0-5) (persian speedwell [9]; [24]): 5 (Herbicidal rate of 90% or more (almost completely withered)); O: lambsquarters, herbicidal effect (criteria 0-5) (lambsquarters [10]; [24]): 4 (Herbicidal rate of 70% or more and less than 90%); P: chickweed, herbicidal effect (criteria 0-5) (chickweed [12]; [24]): 5 (Herbicidal rate of 90% or more (almost completely withered)); H: barnyard grass, herbicidal effect (criteria 0-5) (barnyard grass [13]; [24]): 5 (Herbicidal rate of 90% or more (almost completely withered)); M: velvetleaf, herbicidal effect (criteria 0-5) (velvetleaf [15]; [24]): 4 (Herbicidal rate of 70% or more and less than 90%); N: redroot pigweed, herbicidal effect (criteria 0-5) (redroot pigweed [17]; [24]): 4 (Herbicidal rate of 70% or more and less than 90%); J: blackgrass, herbicidal effect (criteria 0-5) (blackgrass; [24]): 1 (Herbicidal rate of 5% or more and less than 20%); L: windgrass, herbicidal effect (criteria 0-5) (windgrass [21]; [24]): 5 (Herbicidal rate of 90% or more (almost completely withered)) |
| Cc1nn(C)c(=O)c(-c2c(-c3ccc(N(C)C)cc3)sc3ccc(F)cc23)c1O [2-425] | 5 (Herbicidal rate of 90% or more (almost completely withered)) | 0 (Herbicidal rate of 5% or less (almost no effect)) | 0 (Herbicidal rate of 5% or less (almost no effect)) | 5 (Herbicidal rate of 90% or more (almost completely withered)) | 0 (Herbicidal rate of 5% or less (almost no effect)) | 2 (Herbicidal rate of 20% or more and less than 40%) | 2 (Herbicidal rate of 20% or more and less than 40%) | 3 (Herbicidal rate of 40% or more and less than 70%) | 4 (Herbicidal rate of 70% or more and less than 90%) | 3 (Herbicidal rate of 40% or more and less than 70%) | 3 (Herbicidal rate of 40% or more and less than 70%) | 0 (Herbicidal rate of 5% or less (almost no effect)) | 4 (Herbicidal rate of 70% or more and less than 90%) | 5 (Herbicidal rate of 90% or more (almost completely withered)) | 0 (Herbicidal rate of 5% or less (almost no effect)) | 0 (Herbicidal rate of 5% or less (almost no effect)) | 0 (Herbicidal rate of 5% or less (almost no effect)) | I: wild oat, herbicidal effect grade (wild oat [1]; [25]): 4 (Herbicidal rate of 70% or more and less than 90%); G: green foxtail, herbicidal effect grade (green foxtail [2]; [25]): 5 (Herbicidal rate of 90% or more (almost completely withered)); F: southern crabgrass, herbicidal effect grade (southern crabgrass [4]; [25]): 5 (Herbicidal rate of 90% or more (almost completely withered)); K: Italian ryegrass, herbicidal effect grade (Italian ryegrass [8]; [25]): 4 (Herbicidal rate of 70% or more and less than 90%); R: persian speedwell, herbicidal effect grade (persian speedwell [9]; [25]): 5 (Herbicidal rate of 90% or more (almost completely withered)); O: lambsquarters, herbicidal effect grade (lambsquarters [10]; [25]): 5 (Herbicidal rate of 90% or more (almost completely withered)); P: chickweed, herbicidal effect grade (chickweed [12]; [25]): 5 (Herbicidal rate of 90% or more (almost completely withered)); H: barnyard grass, herbicidal effect grade (barnyard grass [13]; [25]): 4 (Herbicidal rate of 70% or more and less than 90%); M: velvetleaf, herbicidal effect grade (velvetleaf [15]; [25]): 5 (Herbicidal rate of 90% or more (almost completely withered)); N: redroot pigweed, herbicidal effect grade (redroot pigweed [17]; [25]): 5 (Herbicidal rate of 90% or more (almost completely withered)); J: blackgrass, herbicidal effect grade (blackgrass; [25]): 4 (Herbicidal rate of 70% or more and less than 90%); L: windgrass, herbicidal effect grade (windgrass [21]; [25]): 5 (Herbicidal rate of 90% or more (almost completely withered)) |
